A value given as a limit tells only on which side of the number the result lay.

This assay relates to reverse transcriptase from AMV. Briefly: Cell-free reverse transcriptase inhibition, AMV. In kind it is biochemical, avian myeloblastosis virus. How it is done: Reverse transcriptase from various retroviruses have been tested in cell-free assays for inhibition by phosphonoformic acid and phosphonoacetic acid. The assay conditions have been described by Collaborative Research, Inc, 1365 Main Street, Waltham, Mass., USA "Assay kit for mammalian viral reverse transcriptase". BLV and VV were prepared in this laboratory and all other viruses and viral enzyme were obtained from Dr. K Nilsson, Department of Pathology, University of Uppsala and from Boehringer Mannheim, Germany. Phosphonoformic acid (PFA) and phosphonoacetic acid (PAA) were added at pH 7.2 to the reaction mixtures at the start of the reaction.
Rauscher murine leukemia virus; RMuLV, visna virus; VV, avian myeloblastosis virus; AMV, bovine leukemia virus; BLV, baboon endogenous virus; BaEV, simian sarcoma virus; SSV.

With `O=C(O)P(=O)(O)O` [phosphonoformic acid], the Percent inhibition is given as 15% (10 μM, endogenous template); 45% (10 μM, purified enzyme, (rA)n.(dT)10); 43% (10 μM, template/primer (rA)n.(dT)10); 49% (100 μM, endogenous template); 96% (100 μM, purified enzyme, (rA)n.(dT)10); 94% (100 μM, template/primer (rA)n.(dT)10). The same compound returned a Percent inhibition (500 μM, endogenous template) of 70%; a Percent inhibition (500 μM, purified enzyme, (rA)n.(dT)10) above 99%; a Percent inhibition (500 μM, template/primer (rA)n.(dT)10) of 99%.
